Assay results reported in patent publication US20120245180A1, “COMBINATION” (GlaxoSmithKline LLC, priority 2009, published 2012).
Read-outs that look alike come from different tables or passages of the source. Blank lines part the entries; values can stand above or below the molecule they belong to.

Columns and labels:
[1] = system: hepatocellular carcinoma (HCC) cell lines; assay: Cell growth inhibition, panel of 10 HCC cell lines; type: cell-based, human; settings: for IC50: Homo sapiens
Experimental: (§1) Human tumor cell lines from hepatocellular carcinoma (HCC), C3A, Hep3B, HepG2, PLC/PRF/5, SNU182, SNU387, SNU398, SNU423, SNU449 and SNU475 were purchased from the ATCC. Human breast tumor cell lines, HCC2218, HCC1419, BT-474, SK-BR-3, UACC893, JIMT-1, MDA-MB-361, HCC202, MDA-MB-175-VII, HCC1569, HCC1937, HCC38, MDA-MB-157, HCC1954, HCC1500, BT483, KPL-1, SUM225 and ZR-75-1 from ATCC, SUM52 and SUM190 from Asterand, PLC (Detroit Mich.), were cultured in RPMI 1640 medium containing 10% FBS; SKBR3-W13 and BT-474-J4 cultured in RPMI 1640 medium containing 10% FBS and 1 μM lapatinib; KPL4 line was kindly provided by Dr Junichi Kurebayashi (Kawasaki Medical School, Okayama, Japan) and cultured in DMEM containing 5% FBS. JIMT-1 from European Collection of Cell Cultures (UK), is a line derived from a patient clinically resistant to trastuzumab (Herceptin®). SK-BR-3-W13 is a single cell clone isolated by a cloning cylinder after a single treatment of SK-BR-3 cells with 0.5 μM lapatinib. BT-474-J4 is a single cell clone derived from a pool of BT-474 cells that were selected to grow in lapatinib to a concentration of 3 μM.
(§2) Cells were seeded in a 96-well tissue culture plate (NUNC 136102) of RPMI medium containing 10% FBS at 500-2,000 cells per well. Approximately 24 hours after plating, cells were exposed to ten, two-fold or three-fold serial dilutions of either Compound A or B or the combination of the two agents at a 2:1 molar ratio (Compounds A and B respectively). In some cases, cells were grown in RPMI media containing 10% FBS and in the presence or absence of 2 ng/mL hepatocyte growth factor (HGF). Cells were incubated in the presence of compounds for 3 days. ATP levels were determined by adding Cell Titer Glo® (Promega) according to the manufacturer's protocol. Briefly, Cell Titer Glo® was added to each plate, incubated for 20 minutes then luminescent signal was read on the SpectraMax L plate reader with a 0.5 sec integration time. All assays were run at least in duplicate.
(§3) Inhibition of cell growth was estimated after treatment with compound or combination of compounds for three days and comparing the signal to cells treated with vehicle (DMSO). Cell growth was calculated relative to vehicle (DMSO) treated control wells. Concentration of compound that inhibits 50% of control cell growth (IC50) was back-interpolated when y=50% of DMSO treated control wells using nonlinear regression with the equation: […]
(§4) where A is the minimum response (ymin), B is the maximum response (Ymax), C is the inflection point of the curve (EC50) and D is the Hill coefficient.
(§5) Combination effects on potency were evaluated using the Combination Index (CI) and Excess Over Highest Single Agent (EHOSA) methods.

SNU449 = assay: Cell growth inhibition assay, hepatocellular carcinoma cell line (Cell Titer Glo); type: cell-based, human; settings: 3 days
Experimental: as §1
Cells were seeded in a 96-well tissue culture plate (NUNC 136102) of RPMI medium containing 10% FBS at 500-2,000 cells per well. […] ATP levels were determined by adding Cell Titer Glo® (Promega) according to the manufacturer's protocol. Briefly, Cell Titer Glo® was added to each plate, incubated for 20 minutes then luminescent signal was read on the SpectraMax L plate reader with a 0.5 sec integration time. […]
Inhibition of cell growth was estimated after treatment with compound or combination of compounds for three days and comparing the signal to cells treated with vehicle (DMSO). Cell growth was calculated relative to vehicle (DMSO) treated control wells. […]
as §5

SK-BR-3 = assay: Cell growth inhibition assay, breast tumor cell line (Cell Titer Glo); type: cell-based; settings: Homo sapiens, 72 h, SK-BR-3 (HER2+), 3 days
Experimental: as §1, §2, §3, §4, §5
(§6) DNA Copy number data on the HER2 gene was collected for all breast cancer cell lines using the Affymetrix 500K chip (Affymetrix Inc, Sunnyvale, Calif.). Briefly DNA was extracted from each line, digested with the restriction enzyme Nsp or Sty, ligated to an adaptor and amplified by PCR. After PCR, DNA was fragmented, labeled, denatured, and hybridized to the Affymetrix 500K chip. Upon completion of hybridization, each assay was washed and stained. Image data were acquired. Similarly collected data from a panel 10 diploid non-tumorigenic lymphoblastic cell lines were used to calculate DNA copy number. All ‘SNP Chip’ images ('CEL files'), were extracted, read and normalized using the dChip software package (Lin et al. 2004. Bioinformatics. 20:1233-40). SNP-wise ‘copy-number ratios’ (log2 scale) were calculated for all cancer cell lines using the lymphoblastic reference panel and analyzed by circular binary segmentation to reduce noise (Olshen et al. 2004. Biostatistics. 5:557-72). Cell lines with log2 ratios of HER2>0.65 were considered HER2+.

MDA-MB-361 = assay: as above; type: cell-based; settings: Homo sapiens, 72 h, MDA-MB-361 (HER2+), 3 days
Experimental: as §1, §2, §3, §4, §5, §6

UACC893 = assay: as above; type: cell-based; settings: Homo sapiens, UACC-893, 72 h, UACC893 (HER2+), 3 days
Experimental: as §1, §2, §3, §4, §5, §6

SK-BR-3-W13 = assay: as above; type: cell-based; settings: Homo sapiens, 72 h; SK-BR-3-W13 (HER2+), 3 days; read-out: Single agent IC50, Compound A
Experimental: as §1, §2, §3, §4, §5, §6

HCC1419 = assay: as above; type: cell-based; settings: Homo sapiens, 72 h, HCC1419 (HER2+), 3 days
Experimental: as §1, §2, §3, §4, §5, §6

SUM225 = assay: as above; type: cell-based; settings: Homo sapiens, 72 h, SUM225 (HER2+), 3 days
Experimental: as §1, §2, §3, §4, §5, §6

BT474-J4 = assay: as above; type: cell-based; settings: Homo sapiens, 72 h, BT474-J4 (HER2+), 3 days
Experimental: as §1, §2, §3, §4, §5, §6

BT474 = assay: as above; type: cell-based; settings: Homo sapiens, BT-474, 72 h, BT474 (HER2+), 3 days
Experimental: as §1, §2, §3, §4, §5, §6

SUM52 = assay: as above; type: cell-based; settings: Homo sapiens, 72 h, SUM52 (HER2−), 3 days
Experimental: as §1, §2, §3, §4, §5, §6

[2] = read-out: Single agent IC50, Compound A
[3] = read-out: Single agent IC50, Compound B

IC50 ([1]; SNU 182 and PLC/PRF/5 epithelial-like cell lines): 1200 to 2800 nM
IC50 ([1]; epithelial-like HCC cell lines HepG2, C3A and Hep3B): < 37 nM
IC50 ([1]; mesenchymal-like HCC cell lines SNU387 and SNU423): 74 to 577 nM
IC50 (SNU449; Homo sapiens, SNU-449, 72 h, SNU449, HGF −, read-out: Single agent IC50, Compound A): > 5000 nM
IC50 (SNU449; SNU449, HGF + (2 ng/ml), read-out: Single agent IC50, Compound A): > 5000 nM
IC50 (SK-BR-3; [2]): > 1000 nM
IC50 (MDA-MB-361; [2]): > 1000 nM
IC50 (UACC893; [2]): > 1000 nM
IC50 (SK-BR-3-W13): > 1000 nM
IC50 (HCC1419; [2]): > 1000 nM
IC50 (SUM225; [2]): > 1000 nM
IC50 (BT474-J4; [2]): > 1000 nM
IC50 (BT474; [2]): > 1000 nM
IC50 (SUM52; [2]): 9 ± 5 nM
Compound: CC(=O)Nc1cccc(-n2c(=O)n(C3CC3)c(=O)c3c(Nc4ccc(I)cc4F)n(C)c(=O)c(C)c32)c1 [Compound A, N-{3-[3-cyclopropyl-5-[(2-fluoro-4-iodophenyl)amino]-6,8-dimethyl-2,4,7-trioxo-3,4,6,7-tetrahydropyrido[4,3-d]pyrimidin-1(2H)-yl]phenyl}acetamide]
sensitivity to cell growth inhibition ([1]; mesenchymal-like cell lines SNU398, SNU449 and SNU475): not sensitive

IC50 ([1]; all 10 HCC lines): < 103 nM
IC50 (SNU449; Homo sapiens, SNU-449, 72 h, SNU449, HGF −, read-out: Single agent IC50, Compound B): 24 ± 5 nM
IC50 (SK-BR-3; [3]): 24 ± 20 nM
IC50 (MDA-MB-361; [3]): 9 ± 2 nM
IC50 (UACC893; [3]): 3 ± 3 nM
IC50 (HCC1419; [3]): 24 ± 14 nM
IC50 (SUM225; [3]): 13 ± 14 nM
IC50 (BT474-J4; [3]): 14 ± 8 nM
IC50 (BT474; [3]): 30 ± 7 nM
IC50 (SUM52; [3]): 4 nM
Compound: COc1ncc(-c2ccc3nccc(-c4ccnnc4)c3c2)cc1NS(=O)(=O)c1ccc(F)cc1F [Compound B, 2,4-difluoro-N-{2-(methyloxy)-5-[4-(4-pyridazinyl)-6-quinolinyl]-3-pyridinyl}benzenesulfonamide]
